{
  "source": "paper PMC7449217",
  "about": "“The FDA-Approved Drug Nelfinavir Inhibits Lytic Cell-Free but Not Cell-Associated Nonlytic Transmission of Human Adenovirus” (Antimicrobial Agents and Chemotherapy, 2020)",
  "key": {"HAdV-B34": {"test_system": "HAdV-B34", "assay": "fluorescence-based plaque-forming assay, A549 cells", "format": "cell-based, human adenovirus", "experimental": "(§1) Per 96-well plate, 15,000 A549 cells, 10,000 HeLa cells, 30,000 HBECs, 30,000 HCE cells, or 30,000 CMT-93 cells were seeded in 100 μl of the respective supplemented medium and allowed to settle for 1 h at room temperature (RT) prior to cell culture incubation at 37°C with 5% CO2 and 95% humidity. The following day, the medium was replaced with 50 μl of the respective virus stock dilution giving rise to 5 to 50 plaques per 96-well plate. Fifty microliters of nelfinavir to obtain a 0.1 to 50 μM final concentration or the DMSO solvent control was also added, both in supplemented medium. For each experiment, a noninfected, treated control was performed. For uphill plaque assays, the medium volume was increased to 150 μl with identical virus and drug concentrations. For wash-in/washout experiments, the virus was incubated on cells in supplemented medium for 1 h at 37°C, cells were washed with PBS, and a 100-μl drug dilution in supplemented medium was added. All experiments were performed in four technical replicates or as indicated. Cells were incubated under standard cell culture conditions. At the indicated times postinfection, the cells were fixed, and the nuclei were stained for 1 h at RT by the addition of 33 μl 16% (wt/vol) paraformaldehyde (PFA) and 4 μg/ml Hoechst 33342 (Sigma-Aldrich, St. Louis, MO, USA) in PBS. Cells were washed three times with PBS and stored in PBS supplemented with 0.02% N3 for infections with viruses harboring a GFP transgene. For wild-type (wt) viruses, cells were quenched in PBS supplemented with 50 mM NH4Cl, permeabilized using 0.2% (vol/vol) Triton X-100 in PBS, and blocked with 0.5% (wt/vol) bovine serum albumin (BSA) in PBS. Cells were incubated with 381.7 ng/ml mouse anti-HAdV hexon protein antibody (Mab8052; Sigma-Aldrich, St. Louis, MO, USA) and subsequently stained using 2 μg/ml goat anti-mouse-Alexa Fluor 594 (catalog number A21203 or A32742; Thermo Fisher Scientific, Waltham, MA, USA). Plates were imaged on either an IXM-XL or an IXM-C automated high-throughput fluorescence microscope (Molecular Devices, San Jose, CA, USA) using a 4× objective in wide-field mode. Hoechst staining was recorded in the 4′,6-diamidino-2-phenylindole (DAPI) channel, the fluorescein isothiocyanate (FITC)/GFP channel was acquired for viral GFP, and the tetramethyl rhodamine isothiocyanate (TRITC)/Texas Red channel was acquired for hexon immunofluorescence staining.\n(§2) The infection phenotype for each well was quantified using Plaque2.0 ([101]). The number of plaques was determined based on the infection signal (viral GFP or hexon immunofluorescence staining). Nuclei stained with Hoechst were segmented by using CellProfiler ([178]). Infected nuclei were classified based on the median infection signal per nucleus in CellProfiler. Data were plotted, and the EC50 (infected and treated cells), the TC50 (noninfected, treated cells), as well as the corresponding standard errors (SE) were determined using curve fitting in GraphPad (version 8.1.2; GraphPad Software, Inc.) using three-parameter inhibitor concentration-versus-response nonlinear regression. The mean TI50 was calculated as the […] ratio of the means. The TI50 SE was calculated by error propagation."}, "HAdV-D8": {"test_system": "HAdV-D8", "assay": "fluorescence-based plaque-forming assay, A549 cells", "format": "cell-based, human adenovirus", "experimental": "as §1, §2"}, "HAdV-D37": {"test_system": "HAdV-D37", "assay": "fluorescence-based plaque-forming assay, A549 cells", "format": "cell-based, human adenovirus", "experimental": "as §1, §2"}, "rec700 (HAdV-C5/2)": {"test_system": "rec700 (HAdV-C5/2)", "assay": "fluorescence-based plaque-forming assay, A549 cells", "format": "cell-based, human adenovirus", "experimental": "as §1, §2"}, "HAdV-B11": {"test_system": "HAdV-B11", "assay": "fluorescence-based plaque-forming assay, A549 cells", "format": "cell-based, human adenovirus", "settings": "for TI50 (TC50/IC50): HAdV-B11 in A549, 3 dpi, Hexon", "experimental": "as §1, §2"}, "HAdV-B14a": {"test_system": "HAdV-B14a", "assay": "fluorescence-based plaque-forming assay, A549 cells", "format": "cell-based, human adenovirus", "experimental": "as §1, §2"}, "HAdV-B35-pIX-FS2A-GFP": {"test_system": "HAdV-B35-pIX-FS2A-GFP", "assay": "fluorescence-based plaque-forming assay, A549 cells", "format": "cell-based, human adenovirus", "experimental": "as §1, §2"}, "HAdV-C2": {"test_system": "HAdV-C2", "assay": "fluorescence-based plaque-forming assay, A549 cells", "format": "cell-based, human adenovirus", "experimental": "as §1, §2"}, "HAdV-C1": {"test_system": "HAdV-C1", "assay": "fluorescence-based plaque-forming assay, A549 cells", "format": "cell-based, human adenovirus", "experimental": "as §1, §2"}, "HAdV-D30": {"test_system": "HAdV-D30", "assay": "fluorescence-based plaque-forming assay, A549 cells", "format": "cell-based, human adenovirus", "experimental": "as §1, §2"}, "L3/p23 cysteine protease": {"target": "T1, L3/p23 cysteine protease (Human adenovirus C serotype 5, UniProt P03253)", "T1 construct": "Double-CsCl-purified HAdV particles grown in the presence or absence of nelfinavir; endogenous in cells", "T1 sequence (P03253 whole entry)": "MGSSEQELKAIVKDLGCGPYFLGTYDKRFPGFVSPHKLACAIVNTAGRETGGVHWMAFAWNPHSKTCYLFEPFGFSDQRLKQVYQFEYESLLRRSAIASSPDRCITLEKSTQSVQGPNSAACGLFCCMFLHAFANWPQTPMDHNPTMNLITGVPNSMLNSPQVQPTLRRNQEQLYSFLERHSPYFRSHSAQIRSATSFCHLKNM", "assay": "Western blot analysis of HAdV protease activity (pVI/VI, pVII/VII in purified HAdV-C5)", "format": "cell-based", "settings": "purified HAdV-C5 grown in the presence of nelfinavir", "experimental": "HAdV-C5 was amplified in medium containing 0, 1.25, or 3 μM nelfinavir for 4 days. Cells were harvested and disrupted by three freeze-thaw cycles. The cell debris was removed by freon extraction, and mature full HAdV virions were purified by two rounds of CsCl gradient ultracentrifugation ([162]). The protein concentration was determined by a bicinchoninic acid (BCA) assay (Pierce BCA protein assay kit; Thermo Fisher Scientific, Waltham, MA, USA). For long-term storage, virus stocks were supplemented with 10% (vol/vol) glycerol and kept at −80°C.\nDouble-CsCl-purified HAdV particles grown in the presence or absence of nelfinavir (HAdV-C5^±Nelfinavir stocks) and a size standard (PageRuler plus; Thermo Fisher Scientific, Waltham, MA, USA) were size separated on a 12% acrylamide gel under reducing conditions and transferred to a polyvinylidene difluoride (PVDF) membrane. HAdV proteins were detected using primary antibodies, 1:10,000 R72 rabbit antifiber ([181]), 1:1,000 rabbit anti-pVI/VI ([51]), and 1:1,000 R3 rabbit anti-pVII/VII (Ulf Pettersson, Uppsala University), and visualized using goat anti-rabbit-horseradish peroxidase (HRP) (catalog number 7074; Cell Signaling Technology, Danvers, MA, USA) and the ECL Prime Western blotting detection reagent (GE Healthcare, Pittsburgh, PA, USA). […]"}},
  "note": "Counter-ions that a name gives are not always drawn.",
  "data": [
    {"smiles": "Cc1c(O)cccc1C(=O)N[C@@H](CSc1ccccc1)[C@H](O)CN1C[C@H]2CCCC[C@H]2C[C@H]1C(=O)NC(C)(C)C", "note": "[Nelfinavir, Nelfinavir mesylate]", "values": [
      {"measurement": "TI50 (TC50/IC50)", "setting": "HAdV-B34; HAdV-B34 in A549, 4 dpi, Hexon", "result": 6.40},
      {"measurement": "EC50", "setting": "HAdV-B34; Human adenovirus sp., HAdV-B34 in A549, fixation 4 dpi, read-out Hexon, plaque numbers", "result": 3180, "unit": "nM"},
      {"measurement": "TI50 (TC50/IC50)", "setting": "HAdV-D8; HAdV-D8 in A549, 5 dpi, Hexon", "result": 2.36},
      {"measurement": "EC50", "setting": "HAdV-D8; Human adenovirus sp., HAdV-D8 in A549, fixation 5 dpi, read-out Hexon, plaque numbers", "result": 9090, "unit": "nM"},
      {"measurement": "TI50 (TC50/IC50)", "setting": "HAdV-D37; HAdV-D37 in A549, 5 dpi, Hexon", "result": 1.29},
      {"measurement": "EC50", "setting": "HAdV-D37; Human adenovirus sp., HAdV-D37 in A549, fixation 5 dpi, read-out Hexon, plaque numbers", "result": 16700, "unit": "nM"},
      {"measurement": "EC50", "setting": "rec700 (HAdV-C5/2); Human adenovirus sp., A549", "result": 70, "unit": "nM"},
      {"measurement": "TI50 (TC50/IC50)", "setting": "rec700 (HAdV-C5/2); rec700 (HAdV-C5/2) in A549, 4 dpi, Hexon", "result": 177.41},
      {"measurement": "TI50 (TC50/IC50)", "setting": "HAdV-B11", "result": 0.53},
      {"measurement": "TI50 (TC50/IC50)", "setting": "HAdV-B11; listed as nelfinavir", "result": "< 1"},
      {"measurement": "EC50", "setting": "HAdV-B11; Human adenovirus sp., HAdV-B11 in A549, fixation 3 dpi, read-out Hexon, plaque numbers", "result": 28900, "unit": "nM"},
      {"measurement": "TI50 (TC50/IC50)", "setting": "HAdV-B14a; HAdV-B14a in A549, 3 dpi, Hexon", "result": 38.22},
      {"measurement": "EC50", "setting": "HAdV-B14a; Human adenovirus sp., HAdV-B14a in A549, fixation 3 dpi, read-out Hexon, plaque numbers", "result": 400, "unit": "nM"},
      {"measurement": "TI50 (TC50/IC50)", "setting": "HAdV-B35-pIX-FS2A-GFP; HAdV-B35-pIX-FS2A-GFP in A549, 4 dpi, Hexon", "result": 6.13},
      {"measurement": "EC50", "setting": "HAdV-B35-pIX-FS2A-GFP; Human adenovirus sp., A549", "result": 2490, "unit": "nM"},
      {"measurement": "TI50 (TC50/IC50)", "setting": "HAdV-C2; HAdV-C2 in A549, 4 dpi, Hexon", "result": 71.09},
      {"measurement": "EC50", "setting": "HAdV-C2; Human adenovirus sp., HAdV-C2 in A549, fixation 4 dpi, read-out Hexon, plaque numbers", "result": 240, "unit": "nM"},
      {"measurement": "TI50 (TC50/IC50)", "setting": "HAdV-C1; HAdV-C1 in A549, 4 dpi, Hexon", "result": 12.22},
      {"measurement": "EC50", "setting": "HAdV-C1; Human adenovirus sp., HAdV-C1 in A549, fixation 4 dpi, read-out Hexon, plaque numbers", "result": 1940, "unit": "nM"},
      {"measurement": "TI50 (TC50/IC50)", "setting": "HAdV-D30; HAdV-D30 in A549, 5 dpi, Hexon", "result": 3.18},
      {"measurement": "EC50", "setting": "HAdV-D30; Human adenovirus sp., HAdV-D30 in A549, fixation 5 dpi, read-out Hexon, plaque numbers", "result": 4200, "unit": "nM"},
      {"measurement": "effect on proteolytic maturation of the virus by L3/p23 cysteine protease", "setting": "L3/p23 cysteine protease", "result": "did not affect"}
    ]}
  ]
}
